Results taken from patent US7803842B2, “Choline esters useful for the treatment of cognitive dysfunctions and enhancement of memory, learning and cognition” (priority 2004, dated 2010).
“Also recorded” adds a separate entry of the source. Structures can show the parent of a compound that is named as a salt.

How the values were obtained:
[1] = system: scopolamine impaired rats; test: Water maze hidden platform task in scopolamine impaired rats; type: in vivo, Long Evans rats; details: for Hidden platform task performance (latency, swim path length) vs saline controls; reversal of scopolamine effect: donepezil 0.75 mg/kg p.o. daily with scopolamine 0.1 mg/kg i.p., test days 3 and 4, hydrochloride
Description: (§1) Male Long-Evans rats (3 months of age) were administered either saline, donepezil (0.75 mg/kg), or PP-100 (3.0 mg/kg or 40.0 mg/kg) by oral gavage for 10 days prior to (and during the 5 days of) testing in a water maze task. The compounds were evaluated for their ability to reverse the amnestic effects of scopolamine (0.1 mg/kg) in this task.
The animals were randomly assigned to one of 5 groups (n=10/group) and administered one daily dose of either of two doses of the choline derivative PP-100 (3 or 40 mg/kg), donepezil HCL (0.75 mg/kg), or vehicle (0.9% saline), via oral gavage (p.o.) beginning ten days prior to initiation of the water maze task. Daily dosing continued through the initial day of visible platform testing and the subsequent five days of water maze testing (i.e., on hidden platform test days as well as probe trial days). On both the single day of pre-testing (Visible Platform Test) as well as on each day of watermaze testing, thirty minutes prior to the first trial, 0.1 mg/kg of scopolamine hydrobromide was administered i.p. to four of the five groups (i.e., excluding the saline-saline group). Fifteen minutes after the scopolamine injection (or vehicle) each group was dosed with one of the test articles or vehicle (see Table 1 for an overview of the testing protocol). Test articles were prepared according to the supplied instructions, and aliquots of the solutions were stored (at −20° C.). Test agents were freshly thawed at the time of use.
In order to test and compare the effects of PP-100 on both acquisition and recall of spatial memories, the water maze hidden platform task was utilized. […] Scopolamine is known to impair performance in the water maze task, and blockage of scopolamine effects is known to reduce impairment in the water maze (e.g., Terry et al., Drug Dev. Res., 47:97 (1999).
The water maze experiment was performed in a circular pool (diameter=180 cm, height=76 cm) made of black plastic. The pool was filled with water to a depth of 35 cm and the water was maintained at 25.0±1.0° C. The pool was located in a large room with a number of extra-maze visual cues including geometric images (squares, triangles, circles etc.) hung on the wall, diffuse lighting, and black curtains used to hide the experimenter (visually) and the resting test subjects. Swimming activity of each rat was monitored via a television camera mounted overhead, which relayed information including latency to find the platform, total distance traveled, time and distance spent in each quadrant etc. to a video tracking system (Actimetrics, Evanston, Ill.).
For the water maze test itself, the escape platform was submerged. […]

[2] = system: scopolamine impaired rats; test: Water maze visible platform task (pre-test) in scopolamine impaired rats; type: in vivo, Long Evans rats; details: scopolamine 0.1 mg/kg i.p.; hydrobromide
Description: as §1
The animals were randomly assigned to one of 5 groups (n=10/group) and administered one daily dose of either of two doses of the choline derivative PP-100 (3 or 40 mg/kg), donepezil HCL (0.75 mg/kg), or vehicle (0.9% saline), via oral gavage (p.o.) beginning ten days prior to initiation of the water maze task. Daily dosing continued through the initial day of visible platform testing and the subsequent five days of water maze testing (i.e., on hidden platform test days as well as probe trial days). […]
The water maze experiment was performed in a circular pool (diameter=180 cm, height=76 cm) made of black plastic. […] Swimming activity of each rat was monitored via a television camera mounted overhead, which relayed information including latency to find the platform, total distance traveled, time and distance spent in each quadrant etc. to a video tracking system (Actimetrics, Evanston, Ill.). […]

SMILES	Hidden platform task performance (latency, swim path length) vs saline controls; reversal of scopolamine effect [1]	Hidden platform task performance (latency, swim path length) vs saline controls; reversal of scopolamine effect ([1]; listed as Donepezil)	Hidden platform task performance vs saline controls ([1]; with scopolamine 0.1 mg/kg i.p., donepezil 0.75 mg/kg or PP-100 3 or 40 mg/kg p.o., test days 1 and 2)	Effect on ability to locate a highly visible platform [2]	Effect on learning in the hidden platform task (latency, swim distance) ([1]; scopolamine 0.1 mg/kg i.p. 30 minutes before first trial)
COc1cc2c(cc1OC)C(=O)C(CC1CCN(Cc3ccccc3)CC1)C2 (racemic) [donepezil, (±)-2-[(1-benzyl-4-piperidyl)methyl]-5,6-dimethoxy-1-indanone hydrochloride]	did not differ (statistically) from saline controls	appeared to at least partially reverse the effects of scopolamine	generally performed less efficiently than saline controls	–	–
CN1[C@@H]2C[C@@H](OC(=O)[C@H](CO)c3ccccc3)C[C@H]1[C@@H]1O[C@@H]12 [scopolamine, scopolamine hydrobromide]	–	–	–	tended to produce impairment; also recorded: led to some impairment	impaired learning
